Measured values from US9867811B2, “Method of treating atherosclerosis in high triglyceride subjects” (NOVARTIS AG, priority 2011, dated 2018).

Assays:
CETP [1] = assay: Ex vivo CETP activity in plasma of hamsters (saline or Triton WR-1339 treated); conditions: hamster; for Inhibition of CETP activity, lower dose group, Triton WR-1339 group / Inhibition of CETP activity, lower dose group, saline group: oral gavage: Torcetrapib 5 mg/kg, Anacetrapib 1.5 mg/kg, Example 49 1.5 mg/kg, Example 8 0.75 mg/kg; for Inhibition of CETP activity, lower dose group, Triton WR-1339 group / Inhibition of CETP activity, higher dose group, Triton WR-1339 group: Triton WR-1339 100 mg/kg i.v.; for Inhibition of CETP activity, lower dose group, Triton WR-1339 group: not significant vs vehicle; for Inhibition of CETP activity, lower dose group, saline group / Inhibition of CETP activity, higher dose group, saline group: saline i.v.; for Inhibition of CETP activity, higher dose group, Triton WR-1339 group / Inhibition of CETP activity, higher dose group, saline group: oral gavage: Torcetrapib 10 mg/kg, Anacetrapib 3 mg/kg, Example 49 3 mg/kg, Example 8 1.5 mg/kg
Experimental: Nine- to ten-week-old, male golden Syrian hamsters were purchased from Japan SLC Inc. (Shizuoka, Japan). Animals underwent a more than 1-week acclimation period under the following conditions: 8:00/20:00 light/dark cycle, room temperature 23±2° C. […] During this time, animals received filtered (0.5 μm) water and a standard chow diet ad libitum.
Whole blood samples were collected using a heparin-washed syringe (Heparin sodium injection “Ajinomoto”; Ajinomoto, Tokyo, Japan) from the abdominal vein by venipuncture under isoflurane (Abbott Japan Co. Ltd.) inhalant anesthesia. After centrifugation at 15,000 rpm for 10 min at 4° C., heparinized plasma was prepared and stored at −80° C. until use.
CETP activity (RFU/min) was defined as the change in fluorescence intensity from 30 to 90 min.
The effect of an acute increase of plasma triglycerides in vivo (acute increase in triglyceride-rich particles) on the ability of Torcetrapib to alter plasma CETP activity, triglyceride and total cholesterol levels was investigated. Torcetrapib at doses of 3, 10 or 30 mg/kg or vehicle was administered once by gavage to hamsters fed a standard chow diet.
Compound or vehicle was administered once by gavage to hamsters fed a standard chow diet.

CETP [2] = target: T1, CETP (Macaca fascicularis, UniProt P47896); assay: Plasma CETP activity in cynomolgus monkeys on chow or high carbohydrate diet; assay type: in vivo; conditions: for CETP activity % Δ vs day 0, Day 7, Chow / CETP activity % Δ vs day 0, Day 14, Chow: chow diet; for CETP activity % Δ vs day 0, Day 7, Chow / CETP activity % Δ vs day 0, Day 7, High CHO: day 7, Example 8 3 mg/kg; for CETP activity % Δ vs day 0, Day 7, Chow / CETP activity % Δ vs day 0, Day 14, Chow / CETP activity % Δ vs day 0, Day 7, High CHO / CETP activity % Δ vs day 0, Day 14, High CHO: Anacetrapib 10 mg/kg, mean ± SD; for CETP activity % Δ vs day 0, Day 14, Chow / CETP activity % Δ vs day 0, Day 14, High CHO: day 14, Example 8 3 mg/kg; for CETP activity % Δ vs day 0, Day 7, High CHO / CETP activity % Δ vs day 0, Day 14, High CHO: high carbohydrate diet
T1 construct: from tissue; host or cells: EDTA plasma of cynomolgus monkeys dosed orally
T1 sequence (P47896 18-493): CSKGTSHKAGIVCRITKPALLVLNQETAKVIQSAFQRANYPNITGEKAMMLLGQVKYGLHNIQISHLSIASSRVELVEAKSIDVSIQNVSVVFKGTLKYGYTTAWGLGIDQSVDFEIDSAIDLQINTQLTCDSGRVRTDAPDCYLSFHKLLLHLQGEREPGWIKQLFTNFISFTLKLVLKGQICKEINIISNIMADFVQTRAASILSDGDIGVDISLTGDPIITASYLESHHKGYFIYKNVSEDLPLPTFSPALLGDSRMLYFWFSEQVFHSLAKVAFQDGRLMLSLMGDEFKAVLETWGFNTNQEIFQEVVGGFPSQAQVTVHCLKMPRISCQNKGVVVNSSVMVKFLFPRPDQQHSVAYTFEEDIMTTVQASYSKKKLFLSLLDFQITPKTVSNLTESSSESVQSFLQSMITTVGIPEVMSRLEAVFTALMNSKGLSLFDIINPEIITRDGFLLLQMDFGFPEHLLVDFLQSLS
Text: Normal male cynomolgus monkeys (n=17) weighing between 8-14 kg are placed on a high-carbohydrate, low-fat diet. The caloric composition of the diet is approximately 13.4% protein, 79.1% carbohydrate (sugar to starch ratio 50:50) and 7.5% fat. Calories are derived from standard monkey chow (LabDiet® 5047, PMI, Richmond, Ind. or LabDiet® 5000, Balanced Fiber diet, PMI, Richmond, Ind.) in quantities necessary to meet the protein and fat requirements, with the remaining calories provided by sugar-sweetened cereals, candies, and fruit (banana, orange, cantaloupe, honeydew, pineapple). The high-carbohydrate (CHO) diet will be fed for 18 days (4 days of pre-drug diet, 14 days of drug treatment), after which time they will return to their regular chow diets for a 14 day washout period followed by a second 14 day dosing phase of the study (normal diet).
Compound of Example 8 is dissolved at 30 mg/mL in 1M NaOH+ethanol:maisoel glyceride:propylene glycol:cremophor RH40 (10:36:9:45) and diluted 1:10 in ddH2O. […] The formulations are prepared each day (weekend doses are prepared on Friday) and stored stirring and protected from light at room temperature until dosing. Artificial flavor and color will be added to the dose when prepared.
The animals will ingest the compounds (1 mL/kg) voluntarily from a plastic syringe offered at their home cage at approximately 8 am daily. Animals will be fed 60 minutes after the dose is administered.
Blood collection will take place weekly during each dosing phase. Animals are fasted overnight (approximately 16 hours) prior to blood collection. Blood samples are collected from a saphenous vein via needle and syringe and put into 2 mL EDTA-coated tubes that are immediately placed on ice until centrifugation. Samples are centrifuged at 3,000 rpm for 20 minutes. The plasma is collected, divided into aliquots (listed below), and stored at −70° C. until analysis.

Row | CETP activity % Δ vs day 0, Day 7, Chow (CETP [2]) | CETP activity % Δ vs day 0, Day 14, Chow (CETP [2]) | CETP activity % Δ vs day 0, Day 7, High CHO (CETP [2]) | CETP activity % Δ vs day 0, Day 14, High CHO (CETP [2]) | CETP inhibitory activity in monkeys with diet-induced hypertriglyceridemia (CETP [2]; TG>500 mg/dL) | Compound | Inhibition of CETP activity, lower dose group, Triton WR-1339 group (CETP [1]) | Inhibition of CETP activity, lower dose group, saline group (CETP [1]) | Inhibition of CETP activity, higher dose group, Triton WR-1339 group (CETP [1]) | Inhibition of CETP activity, higher dose group, saline group (CETP [1])
1 | −62 ± 15% | −59 ± 19% | −33 ± 23% | −24 ± 22% | – | COc1cc(F)c(C(C)C)cc1-c1ccc(C(F)(F)F)cc1CN1C(=O)O[C@H](c2cc(C(F)(F)F)cc(C(F)(F)F)c2)[C@@H]1C [Anacetrapib, reference compound] | 8% | 56% | 13% | 78%
2 | −78 ± 7% | −73 ± 9% | −72 ± 7% | −66 ± 10% | retains CEPT inhibitory activity | CC[C@@H]1C[C@H](N(Cc2cc(C(F)(F)F)cc(C(F)(F)F)c2)c2ncc(-c3cnn(C)c3)cn2)C[C@H](CC)N1C(=O)O[C@H]1CC[C@H](C(=O)O)CC1 [Example 8] | 20% | 72% | 47% | 79%
